Data: patent US7186703B2, “Derivatives of branched-chain lipophilic molecules and uses thereof” (D-Pharm Ltd., priority 2000, dated 2007)
Read-outs that look alike come from different tables or passages of the source.

Legend:
[1] = system: Primary bronchial epithelial cells; assay: MTT cytotoxicity, normal primary epithelial cells; type: cell-based, human; settings: Normal primary epithel, three days, read-out: EC50 (50% reduction in cell viability)
Description: (§1) The cytotoxic activity of various phospho-derivatives of branched-chain fatty acids (DP-BFAs) was assayed in vitro in cell cultures that include normal and malignant cell types. The following cell systems were used: • Primary fibroblasts (human) • Normal bone marrow (BM) cells (mouse) • Primary bronchial epithelial cells (human, from Clonetics, cat. no. CC-2541) • Caco-2—colon cancer cell line (human, ATTC, HTB-37) • C6 glioma cell line (rat, ATCC, CRL-2199) • Neuro2a—neuroblastoma cell line (mouse, ATCC, CCL-131) • SKBR-3—breast cancer cell line (human, ATTC, HTB-30) • HL60—myeloid leukemia cell line (human, ATCC, CCL-240) • U937—myeloid leukemia cell line (human)
(§2) Cells were seeded in a microtiter plate in MEM containing 2 mM L-glutamine, 100 units/ml penicillin, 100 ug/ml streptomycin and 10% FCS at 37° C. The cultured cells were incubated, during their linear growth phase in the absence (control group) or presence of various DP-BFAs as indicated. The final concentrations of the tested DP-BFAs ranged from 1.5 to 200 microMolars. At the end of the incubation period, which was five days for the bone marrow cells and three days for all the other cell lines, the cytotoxic effect of the added P-BFA on the cells was estimated by using the colorimetric MTT assay. The MTT assay (Mosmann (1983) J. Immunol Methods 65: 55–63) measures mitochondrial reductase activity and serves for quantitative assessment of cellular viability. Drug concentration that causes 50% reduction in cell viability in comparison to the control group, is defined as EC50. The EC50 values of the tested DP-BFA compounds were calculated from dose response curves established for each of the different assayed cell lines.
(§3) Each EC50 value is an average of EC50 values derived from 1–5 independent experiments.

[2] = system: HL60 myeloid leukemia cell line; assay: MTT cytotoxicity, HL60; type: cell-based, human; settings: HL60, three days, read-out: EC50 (50% reduction in cell viability)
Description: as §1, §2, §3

[3] = system: U937 myeloid leukemia cell line; assay: MTT cytotoxicity, U937; type: cell-based, human; settings: U937, three days, read-out: EC50 (50% reduction in cell viability)
Description: as §1, §2, §3

[4] = system: Normal bone marrow (BM) cells; assay: MTT cytotoxicity, normal bone marrow cells; type: cell-based, mouse; settings: five days, read-out: EC50 (50% reduction in cell viability)
Description: as §1, §2, §3

[5] = system: Chinese hamster ovary (CHO) AA8 cell line; assay: LDH release toxicity assay in cultured CHO AA8 cells; type: cell-based; settings: 1 hour incubation, read-out: LC50 (the source's name)
Description: Various DP-BFA molecules were screened in cultured Chinese hamster ovary (CHO) AA8 cell line in order to establish their toxicity. LC50 values, i.e. the concentrations causing death in 50% of cell population, were calculated from dose response curves. LC50 values of phospho-BFAs were compared to those of the corresponding branched fatty acids (=carbo-BFAs).
Lactate dehydrogenase (LDH) release was used as an assay for the integrity of the cells membrane and, thus, for estimation of toxicity. Cells (2×10^5/ml) were seeded (150 μl/well) in 96 well plates, in RPMI-1640 medium containing 10% FCS. After two days, tested DP-BFA compounds or the control compound myristic acid were added to the plates in declining concentrations ranging from 500 to 1 μg/ml. Cells were harvested after one hour. […] Other controls included, two blank wells and five wells containing cells with no additional drugs. Following centrifugation (1500 rpm, 5 min), 75 μl of the supernatant was transferred to a new plate with 45 μl of an LDH assay mix (Tox-7 kit, Sigma). After 10–20 minutes at room temperature, absorbance was measured using an Elisa Reader 490 nm.
Each experiment was performed in triplicate.

[6] = system: Caco-2 colon cancer cell line; assay: MTT cytotoxicity, Caco-2; type: cell-based, human; settings: Caco-2, three days, read-out: EC50 (50% reduction in cell viability)
Description: as §1, §2, §3

[7] = system: SKBR-3 breast cancer cell line; assay: MTT cytotoxicity, SKBR-3; type: cell-based, human; settings: three days, read-out: EC50 (50% reduction in cell viability)
Description: as §1, §2, §3

[8] = system: Neuro2a neuroblastoma cell line; assay: MTT cytotoxicity, Neuro2a; type: cell-based, mouse; settings: three days, read-out: EC50 (50% reduction in cell viability)
Description: as §1, §2, §3

[9] = system: blood brain barrier (BBB); assay: BBB permeabilization in rats, Evans blue extravasation into brain; type: in vivo, Sprague-Dawley rats; settings: for MEC (minimal effective concentration): concentration giving 3 μg EB/g brain
From the text: Permeabilization of the BBB by DP-BFA was investigated in rat model system by monitoring accumulation in the brain of two markers: a) Evans blue dye (EB), which rapidly binds in vivo with albumin (NW 70 kD) and is an indicator for paracellular transport; and b) Fluorescein sodium salt (F—Na), MW 376 D, which is transported via the cellular space, and enables monitoring transcellular transport. Upon BBB disruption the Evans blue-albumin complex irreversibly accumulates in the intercellular space of the brain. The much smaller tracer fluorescein may be transported intracellularly to occupy both inter and intracellular space in the brain.
Blood brain barrier permeabilization in Sprague-Dawley rats was induced by brief exposure to DP-BFA. The animals were anesthetized with Rampun-Imalgen and DP-BFA test compounds were administered via the external carotid artery retrograde to the brain (Smith, Q. R. Methods of study. In: Physiology and Pharmacology of the Blood-Brain Barrier. Ed. Bradbury M. W. B. Spinger-Verlag. Berlin-Heidelberg-NY; 1992: 24–52). The pterygo-palathina artery was ligated to avoid escape of infused solutions towards the external head vasculature. DP-BFA solutions were infused over a period of 30 seconds or half an hour, using a Harvard Apparatus Syringe Pump. Blood flow through carotid communis artery was interrupted only at the time of infusion.
All tested DP-BFA molecules were prepared from stock solutions in either water or ethanol by diluting 200–1000 fold into solution of isosmotic mannitol (5%) in Tromethamine buffer (Sigma) or PBS (pH 7.4)
The markers, Evans blue (EB, 25 mg/ml) and fluorescein (F—Na, 12.5 mg/ml), in 1 ml solution, were injected intravenously immediately following administration of the tested DP-BFA, or after a specific time interval if reversibility of action was investigated. Supportive i.v. infusion of F—Na (12.5 mg/ml–100 μl/min) was performed for 8 minutes. Brains were washed with saline solution (60 ml) 10 min after the intracarotid “flash”. Brain ipsilateral and contralateral hemispheres and tumors, where applicable, were homogenized separately with 50% trichloroacetic acid (TCA). The markers concentrations in the cortex and in tumors, where, applicable, were determined spectrofluorometrically (Uyama, O. et al., (1988) J. Cereb. Blood Flow Metab. 8, 282–284: Abraham et al., (1996) Neurosci. Lett. 208, 85–88). The markers content was calculated as μg marker per one-gram brain tissue. Standard error and Student's test for statistical significance were used.
The experiment was carried out on male Sprague-Dawley rats weighing 250–320 g. The procedure described above in Example 17 was followed.
The effect of the tested compounds on the BBB opening was evaluated by two parameters:
a) efficacy—The degree of BBB opening estimated in terms of accumulation of Evans Blue albumin (μg EB/g brain tissue); and
b) potency—measured in terms of EC50 and minimal effective concentration (MEC) values. EC50 is the concentration of a tested compound producing 50% of the maximal effect of Evans Blue extravasation.
The effect of various DP-BFAs on BBB permeability was tested in the model system of rat brains, as described above in Example 17. Efficacy, namely the level of the BBB opening was expressed as the amount of Evans blue accumulated in the brain (μg EB/g brain). Potency of the tested molecules was estimated by their calculated EC50 and minimal effective concentration (MEC) values.

[10] = system: blood brain barrier (BBB); assay: BBB permeability to EB-albumin and Fluorescein in normal rat brains; type: in vivo; settings: compounds at EC50 (Mannitol 25%); for % EB/g brain: control 0.04 ± 0.01; for Brain fluorescein uptake (% of serum F-Na level): control 0.3 ± 0.08; for Ratio F-Na/EB (mean of individual ratios): control 9.5 ± 1.6
From the text: The effect of various DP-BFAs on BBB permeabilization to molecules of different sizes was examined in vivo in the model system of normal rat brains.
The transport of two markers was followed: a) Evans blue bound to albumin (MW 70 kD) as an indicator for paracellular transport; and b) Fluorescein sodium salt (MW 376 D) that represents small size molecules.
The Evans blue dye (EB) and Fluorescein sodium salt (F—Na) were infused into the artery carotis externa over 30 seconds according to the protocol described above in Example 17. The test compounds were used at their EC50 concentrations. Control animals were treated with vehicle solution.
Evans blue extravasation is expressed as the percentage of the total amount of EB accumulated per one gram of brain tissue. The transport of fluorescein into the brain, which is dependent on the serum concentration of this molecule, is presented as percentage of the F—Na level in the serum.

[11] = type: in vivo; settings: rats, sodium salt
Description: DP-BFA molecules were evaluated for safety and toxicity. Increasing doses of the tested compounds were administered intra-arterially (i.a.) into rats following the protocol described above in Example 17. Animal viability was monitored for 24 hours to evaluate lethal concentrations (LC). LC is defined as the minimal concentration that caused death.
Safety index is defined as the ratio between the lethal dose (LC) and the minimal effective concentration (MEC), wherein MEC corresponds to a calculated concentration of the tested compound that elicits accumulation of three times the amount of Evans blue accumulated in control animals treated with vehicle only, i.e. total accumulation of 3 μg EB. The higher the LC/MEC ratio is, the higher the safety index.

[12] = Octanol/saline solubility and partition coefficient, shake-flask technique
Description: The lipophilicity values of various derivatives of branched fatty acids were estimated by comparing the solubility of these compounds in organic versus aqueous solutions. Octanol and physiological saline were used, respectively, as the organic and aqueous solutions. The partition coefficient (Pc) value, i.e. the octanol/saline distribution was measured by the shake-flask technique.

[13] = Table 6, rat brains, Evans blue extravasation, read-out: EQ50 (the source's name)

Compound | EC50 [3] | CC50 [5] | EC50 [6] | EC50 [7] | EC50 [8] | MEC (minimal effective concentration) ([9]; Table 6) | EC50 [9, 13] | % EB/g brain [10] | Brain fluorescein uptake (% of serum F-Na level) [10] | Ratio F-Na/EB (mean of individual ratios) [10] | further results
4-Octadecanyl phosphocholine [3,14-PC] | 4 µM | – | – | – | – | – | – | – | – | – | EC50 [1]: 72 µM; EC50 [2]: 7 µM; EC50 [4]: 160 µM
CCCCCCCC(CCCCCCC)OP(=O)(O)O [7,7-PO4Na2, 8-Pentadecanyl Disodium Phosphate] | – | 320 µM | – | – | – | – | – | – | – | – | –
CCCCCCCCCCCCC(CCC)C(=O)OCCOP(=O)([O-])[O-].[Na+].[Na+] (centres unmarked) [3,12-MEG-PO4Na2, 2-(2′-Propyltetradecanoyloxy)ethyl Disodium Phosphate] | 75 µM | – | > 200 µM | > 200 µM | 60 µM | 11 ± 2 µM | 18 ± 3 µM | 0.8 ± 0.1% | 5.0 ± 0.8 % of the F—Na level in the ser | 8.4 ± 0.9 | μg EB/g brain (at EC50) ([9]; Table 6, at EC50 (Mannitol at 25%)): 5 ± 1 μg EB/g brain
CCCCCCCCCCCCCCCCCCC(CCC)C(=O)OCCOCCOP(=O)([O-])OCC[N+](C)(C)C (centres unmarked) [3,18-DEG-PC, 2-(2′-Propyleicosanoyloxy)ethoxyethylphosphocholine] | – | – | – | – | – | – | – | – | – | – | EC50 ([1]; Homo sapiens, Primary bronchial epithelial cell, 72 h): 60 µM; EC50 ([2]; Homo sapiens, HL-60, 72 h): 13 µM; EC50 ([3]; Homo sapiens, U-937, 72 h): 6 µM; EC50 ([4]; Mus musculus, Bone marrow cell, 120 h): 80 µM
CCCCCCCCCCCCC(CCC)OP(=O)([O-])[O-].[Na+].[Na+] (centres unmarked) [3,12-PO4Na2, 4-Hexadecanyl Disodium Phosphate] | 90 µM | 320 µM | > 200 µM | > 200 µM | 105 µM | 3.3 ± 0.5 µM | 55 ± 1 µM | 2.9 ± 0.6% | 8.2 ± 0.9 % of the F—Na level in the ser | 5.9 ± 1.0 | μg EB/g brain (at EC50) ([9]; Table 6, at EC50 (Mannitol at 25%), listed as 3,12-PO4-Na2): 20 ± 3 μg EB/g brain; μg EB/g brain (at EC50) ([9]; Table 6, at EC50 (Mannitol at 25%), listed as 3,12-PO4—Na2): 20 μg EB/g brain
CCCCCCCC(CCCCCCC)C(=O)[O-].[Na+] [7,7-Na, reference compound] | – | 65 µM | – | – | – | – | – | – | – | – | LC (minimal concentration that caused death) ([11]; i.a., viability monitored 24 hours): 360 ± 67 µM; Safety LC/MEC [11]: 2.7; μg EB/g brain (at EC50) ([9]; Table 5, at EC50): 4.2 ± 0.6 μg EB/g brain; MEC (minimal effective concentration) ([9]; Table 5): 132 ± 19; EC50 ([9]; Table 5, rat brain, intracarotid infusion, read-out: EC50 (Evans Blue extravasation)): 184 ± 21 µM; MEC ([9]; Table 8, sodium salt, in µM): 132 ± 19; LogPc (octanol-saline partition coefficient) ([12]; octanol/physiological saline, sodium salts): 1.33; Water mg/ml (solubility in aqueous solution) ([12]; physiological saline as aqueous solution, sodium salts): >25 mg/mL; Octanol mg/ml (solubility in octanol) ([12]; sodium salts of the branched fatty acids and their PO4 derivatives): >50 mg/mL
